{"source": "patent US8211646B1", "about": "“Methods of treating ovarian cancer by modulating SnoN” (University of South Florida, priority 2008, dated 2012)", "format_in_all_cases": "cell-based", "key": {"[1]": {"test_system": "EVI1 forms (MDS1/EVI1, EVI1, EVI1^Del190-515)", "settings": "combination with As2O3; HEY, OVCA429", "method": "(§1) Proteins were resolved on an 8%, 12%, or 15% SDS-PAGE gel (as appropriate) and electrophoretically transferred to polyvinyldifluoride (PVDF) membranes. After blocking with 5% (w/v) milk in TBST (Tris-Buffered Saline containing 0.1% Tween-20) for one hour at room temperature, membranes were incubated with primary antibodies (at appropriate dilution) overnight at 4° C., followed by extensive washing and incubation for 1 hour with the appropriate horseradish peroxidase-conjugated secondary antibodies (BioRad, Hercules, Calif.). Blots were washed extensively. A rabbit polyclonal EVI1 antibody was obtained (1:3000 dilution, St. Jude's Children's Hospital, Memphis, Tenn.). SnoN rabbit polyclonal (1:1000 dilution), PML, and p21 SMURF2 rabbit polyclonal (1:500 dilution), MRP1 mouse monoclonal (1:500 dilution) and GAPDH mouse monoclonal (1:250 dilution) antibodies were obtained from Santa Cruz Biotechnology (Santa Cruz, Calif.). TGFβRII rabbit polyclonal (1:1000 dilution) antibody was obtained from Strategic Diagnostics (Newark, Del.). Smad2/3 rabbit polyclonal (1:1000 dilution), Beclin-1 rabbit polyclonal (1:1000 dilution), AKT rabbit polyclonal (1:1000 dilution), TAK1 rabbit polyclonal (1:1000 dilution), PARP rabbit polyclonal (1:1000 dilution), Beclin-1 rabbit polyclonal (1:1000 dilution), caspase-3 rabbit polyclonal (1:1000) which detects the pro-caspase form, and ATG5 rabbit polyclonal (1:1000 dilution), LC3-II rabbit polyclonal (1:1000 dilution) antibodies were obtained from Cell Signaling Technology (Danvers, Mass.). The HSP27 mouse monoclonal (1:1000 dilution) antibody was obtained from Stressgen (Ann Arbor, Mich.). Blots were developed using chemiluminescence substrates (Amersham Piscataway, N.J. or BioRad, Hercules, Calif.). Monoclonal PAI-1 antibody was obtained from BD Pharmingen. PSMAD2, total SMAD2/3, p-ERK, p-AKT, and total AKT antibodies were obtained from Cell Signaling Technology. A monoclonal antibody against Arkadia was obtained from Abnova (Taiwan).\n(§2) Densitometric analysis was performed using the HP Scanjet 5590 and the Image J program (Image Processing and Analysis in Java, NIH Image Software). Bands were selected and the intensity values were normalized to those for GAPDH. The values are presented as fold-changes relative to control siRNA treated cells.\n(§3) The clinical inhibitors As2O3, geldanamycin (17-AAG) (dissolved in dimethylsulfoxide [DMSO]), and MG132 (dissolved in DMSO) were obtained from Sigma-Aldrich (St. Louis, Mo.), Fisher Scientific (Pittsburgh, Pa.), and Alexis Biochemicals (Farmingdale, N.Y.), respectively. N-acetyl-L-cysteine (NAC; dissolved in media) and Bortezomib (PS-341; dissolved in DMSO) were obtained from Fisher Scientific. 3-Methyladenine (3-MA; dissolved in media) was obtained from MP Biomedicals (Solon, Ohio). Tiron (4,5-Dihydroxy-1,3-benzenedisulfonic acid, dissolved in media) was obtained from Fisher Scientific. zVAD-fmk (dissolved in DMSO) and bafilomycin A (dissolved in DMSO) was obtained from Axxora LLC (San Diego, Calif.). Bovine catalase was obtained from Sigma-Aldrich. HBED and Mn TBAP was obtained from ENZO Life Sciences (Farmingdale, N.Y.). Ovarian cells were plated in 6-well plates at 250,000 cells per well and grown in complete medium. The following day, the cells were treated with 5 μM MG132, As2O3 (between 2-50 μM), 17-AAG (between 2-50 μM), NAC (Fisher Scientific, between 25 μM to 1 mM), Tiron (between 25 μM to 1 mM), 3-MA (0.1 mM to 10 mM), or zVAD-fmk (25 μM to 100 μM). For control cells, DMSO (a final concentration of <0.5%) was added to compare appropriately to drugs dissolved in DMSO. After the appropriate incubation time (6 or 18 hours), cell lysates were collected, protein quantified, and SDS-PAGE/western analysis was performed. In addition, for selected studies, RNA was isolated, quantified, and used for qPCR analysis."}, "[2]": {"test_system": "SnoN", "assay": "Western analysis of SnoN protein levels", "parameters": "SnoN basal protein levels: dose or concentration left out as unconfirmed", "method": "as §1, §2\nas §3, with “The following day, the cells were treated with 5 μM MG132, As2O3 (between 2-50 μM), 17-AAG (between 2-50 μM), NAC (Fisher Scientific, between 25 μM to 1 mM), Tiron (between 25 μM to 1 mM), 3-MA (0.1 mM to 10 mM), or zVAD-fmk (25 μM to 100 μM).” left out"}, "[3]": {"test_system": "EVI1 and TGFβRII RNA", "assay": "qPCR of EVI1 and TGFβRII RNA levels", "settings": "5 μM MG132, 18 hours", "method": "RNA was isolated using the RNeasy Mini Kit (Qiagen, Valencia, Calif.) from normal, benign, stage I-IV ovarian patient samples and quantitative PCR was performed. A one-step RT-PCR Taqman master mix from Applied Biosystems (Foster City, Calif.) and primers for genes in the 3q26.2 amplicon were obtained using Genebank sequences as well as from Assays on Demand (Hs00180524_m1 (SnoN/SkiL)), with the following primers and probe sets.\nEVI1 Exon III—(detects both EVI1 and MDS1/EVI1):\nPrimers/probe sequences for SnoN (Hs00180524_m1), TGFβRII (Hs00234253_m1), and LC3 (Hs00261291_m1) were obtained from Applied Biosystems (Assays by Design).\nmRNA levels were determined using the One-Step-Plus Applied Biosystems Detection System or ABI PRISM 7700 Sequence Detection System using β-actin as a reference. […] 95° C. for 15 s followed by 60° C. for 1 min Using the correlative method, RNA-fold change in expression was calculated as Ct of gene—Ct of β-actin to generate ΔCt from which ΔCt of the normal sample was subtracted. […]\nThe clinical inhibitors As2O3, geldanamycin (17-AAG) (dissolved in dimethylsulfoxide [DMSO]), and MG132 (dissolved in DMSO) were obtained from Sigma-Aldrich (St. Louis, Mo.), Fisher Scientific (Pittsburgh, Pa.), and Alexis Biochemicals (Farmingdale, N.Y.), respectively. […] In addition, for selected studies, RNA was isolated, quantified, and used for qPCR analysis."}, "[4]": {"test_system": "TAK1, SMAD2/3, TGFβRII, AKT, phospho-SMAD2", "assay": "Western analysis of other TGFβ signaling mediators", "method": "as §1, §2, §3"}}, "note": "Peptide text beside a SMILES is read from it. * marks the point of attachment. Cbz = O=C(OCc1ccccc1)*"}
{"compound": "CC(C)C[C@@H](C=O)NC(=O)[C@H](CC(C)C)NC(=O)[C@H](CC(C)C)NC(=O)OCc1ccccc1", "note": "[MG132] (Cbz-Leu-Leu-Leu-aldehyde)", "values": [{"measurement": "EVI1 protein in As2O3-treated cells with added proteosome inhibitor", "setting": "[1]", "value": "recovered"}, {"measurement": "SnoN basal protein levels", "setting": "[2]; MG132, HEY and OVCA429, threshold between 3 and 6 h", "value": "marked increase"}, {"measurement": "SnoN protein in drug-treated cells with added proteosome inhibitor", "setting": "[2]; combination with As2O3", "value": "further increased"}, {"measurement": "EVI1 and TGFβRII RNA levels", "setting": "[3]", "value": "markedly reduce"}, {"measurement": "AKT, SMAD2/3, and TGFβRII protein levels", "setting": "[4]; MG132 at 18 hours", "value": "significantly decreased"}, {"measurement": "TGFβRII protein in drug-treated cells with added proteosome inhibitor", "setting": "[4]; combination with As2O3 (MG132: 6 hour drug treatment)", "value": "recovered"}]}
